The source of these data is a melting point compilation (Tetko et al.).

A word on the melting point: it is the temperature, or range, at which the solid turns liquid.

Consider `CCCC(NC(=O)NCc1ccc(Br)cc1)C(=O)O` (centres undefined), for which the melting point was in the range of 160 to 162 °C.
For `CCC(C)n1c(S)nnc1-c1ccccc1` (centres undefined) the value was 166 to 168 °C.
In the case of `COC(=O)c1cccc(S(=O)(=O)N2CCCCC2)c1`, the melting point is 83 to 85 °C.
Molecule `OC(O)c1nc(-c2ccccc2)no1` displayed a melting point of 103 to 105 °C.
For `CNC(=O)Cn1cnc(N)n1` the value was 149 to 151 °C; for `O=C(O)c1sccc1S(=O)(=O)N1CCCC1`, 128 to 130 °C; for `Cc1cc(C(=O)O)c(C)n1C(C)C`, 178 to 180 °C.
The same measure for `CCSCc1ccc(C(=O)O)cc1`: 123 to 125 °C; for `Cc1cccc(C=C(C(=O)O)c2cccs2)c1`: 158 to 160 °C.
For `O=C(O)Cc1cn(-c2ccccc2)nc1-c1ccc(Br)cc1` the value was 135 to 137 °C; for `Cc1cc(C)n2ncc(C(=O)NCC(=O)O)c2n1`, 244 to 246 °C.
For `O=C1COc2ccc(C(=O)CCl)cc2N1`, the melting point lay within 228 to 230 °C.
The molecule `CCOC(=O)c1noc(C)n1` had a melting point of 32 to 34 °C.
For `Nc1ccc(OCc2cccc(C(F)(F)F)c2)cc1` the value was 67 to 69 °C; for `C=C(C)CNC(=S)NN`, 86 to 88 °C; for `CCc1onc(C)c1C(=O)O`, 126 to 128 °C.
As for `Nc1c(O)cccc1F`, the melting point lay in the range of 121 to 123 °C.
Regarding `O=c1c(Cl)nccn1C1CC1`, the melting point was 90 to 92 °C.
`COc1ccc(C(C)C(=O)O)cc1` (centres undefined) had a melting point of 52 to 54 °C.
For `CC(C)(C)c1nccc(N)n1` the value was 64 to 66 °C; for `CC(=O)c1cc(C#N)c(SCC(=O)O)nc1C`, 187 to 189 °C.
`O=C(O)CCc1ccc(-c2ccccc2F)o1` came in with a melting point of 117 to 119 °C.
The same measure for `CC(NS(=O)(=O)c1ccc(Cl)cc1)C(=O)O` (centres undefined): 136 to 138 °C; for `NC(=O)Nc1ccc(Cl)c(N)c1`: 176 to 178 °C.
Take `Nc1ccc2[nH]nc(N)c2c1`: the melting point was 157 to 159 °C.
The same measure for `CC(C)(C)C(=O)NC1CCCNC1` (centres undefined): 99 to 101 °C.
Regarding `Cc1cc(SC#N)cc(C)c1N`, the melting point was in the range of 82 to 84 °C.
The same measure for `O=C(O)c1cccc(OCC(F)F)n1`: 94 to 96 °C; for `Cc1cc(=O)c(C(=O)O)nn1-c1ccccc1`: 167 to 169 °C.
The same measure for `O=C(O)c1ccc(Nc2ccccc2)c([N+](=O)[O-])c1`: 250 to 252 °C; for `O=C1CC2CCC(C1)N2c1ccccc1`: 89 to 91 °C; for `CC(C)(C)OC(=O)NCc1ccc(C(=O)O)o1`: 131 to 133 °C.
For `O=C(O)CNC(=O)NC1CC1` the value was 179 to 181 °C.
For the molecule `CC(C)c1ccc(C(=O)O)c(C(C)C)c1`, the melting point lay in the range of 99 to 101 °C.
For `CC(C)(C)OC(=O)NCc1ccc2c(c1)CCCN2` the value was 63 to 65 °C; for `Nc1ncc(Cc2ccccc2Cl)s1`, 97 to 99 °C.
For `NNS(=O)(=O)Cc1ccc(F)cc1` the value was 144 to 146 °C; for `Nc1c(C(=O)O)[nH]c(=O)[nH]c1=O`, 300 to 302 °C.
The same measure for `NNC(=O)Nc1ccc(CCO)cc1`: 149 to 151 °C; for `Cc1ccc(S(=O)(=O)N(CCC(=O)O)c2ccccc2)cc1`: 145 to 147 °C; for `N#Cc1cnc(-c2ccccc2)nc1`: 189 to 191 °C.
`Cc1cc(C(=O)O)nn1-c1ccc(Cl)cc1`: the melting point lay in the range of 139 to 141 °C.
Regarding `Sc1nc(-c2ccccc2Cl)no1`, the melting point lay in the range of 100 to 102 °C.
As for `Cc1ccc(-c2ccc(=O)[nH]n2)s1`, the melting point fell in the range of 231 to 233 °C.
`Nc1cnc2ccccc2n1` came in with a melting point of 138 to 140 °C.
`O=C(CCl)NCCc1ccc2c(c1)OCCO2` showed a melting point of 72 to 76 °C.
In the case of `CC(Cl)C(=O)Nc1c(Cl)cc(Cl)cc1Cl` (centres undefined), the melting point is 153 to 155 °C.
The same measure for `Cc1ccc2ncc(C=O)n2c1`: 105 to 107 °C.
For `Cc1nnc(CCl)o1`, the melting point was in the range of 32 to 40 °C.
The same measure for `O=C1CCCc2cc(C(=O)O)ccc2N1`: 267 to 269 °C.
The same measure for `Cc1sc(-c2ccco2)nc1C(=O)O`: 229 to 231 °C.
As for `CC(C)Cc1cc(N)n(C)n1`, the melting point fell in the range of 90 to 92 °C.
For `CCOc1cc(/C=C/C(=O)O)ccc1OC` the value was 164 to 166 °C; for `COCCNc1c(N)n(Cc2ccccc2)c(=O)[nH]c1=O`, 209 to 211 °C.
The same measure for `Cc1cc(Cl)ccc1OC(C(=O)O)c1ccccc1` (centres undefined): 122 to 124 °C.
As for `O=Cc1c(Cl)nc2ccccn2c1=O`, the melting point was 213 to 215 °C.
As for `CS(=O)(=O)NCC(=O)c1ccccc1`, the melting point fell in the range of 113 to 115 °C.
The same measure for `NC(CC(=O)Nc1ccc(F)cc1)=NO`: 142 to 144 °C; for `Cc1nc(O)ccc1I`: 209 to 211 °C; for `CC1(C)CC(=O)CC(C)(C)N1C(=O)CCl`: 67 to 69 °C.
The same measure for `O=C(O)C1(c2ccc3c(c2)OCO3)CCCCC1`: 176 to 178 °C; for `O=C(O)Cc1cccc(OCc2ccc(Cl)cc2)c1`: 126 to 128 °C; for `CC(=O)N(C)c1cccc(N)c1`: 114 to 116 °C.
`O=C(O)c1cnc(-c2ccccc2Cl)s1` showed a melting point of 200 to 202 °C.
On to `NCc1nnc2n1CCC2`, for which the melting point was in the range of 20 to 22 °C.
For `CCCCn1c(=O)[nH]c(=O)c2c1nc(CCl)n2C` the value was 222 to 224 °C; for `O=C(CCl)Nc1ccc(O)cc1`, 145 to 147 °C.
`CC1(c2ccc3c(c2)CCC3)NC(=O)NC1=O` (centres undefined) registered a melting point of 188 to 190 °C.
The same measure for `Cn1cc(-c2cccc(CN)c2)cn1`: 69 to 71 °C; for `Cc1cccc2c(CC#N)c[nH]c12`: 109 to 111 °C; for `COc1ccccc1OCc1ccccc1N`: 55 to 57 °C.
For `COc1c(Br)cc(Br)cc1C=O` the value was 93 to 96 °C.
The same measure for `CN(C)c1ccc(C#N)cc1F`: 34 to 36 °C; for `NC(=O)N1CCN2C(=O)NC(=O)C2C1` (centres undefined): 250 to 252 °C; for `O=C(O)Cn1cnc(-c2ccccc2)n1`: 179 to 181 °C.
`O=C1CCOc2c(F)cc(F)cc21`: the melting point is 135 to 137 °C.
For `CNc1cc(C(=O)O)c2ccccc2n1` the value was 346 to 348 °C; for `Cn1nc(C(=O)NN)c2ccccc2c1=O`, 134 to 136 °C.
For `NCc1ccc(-c2ccn[nH]2)cc1` the value was 141 to 143 °C.
For `CCOC(=O)c1c(N)c(C#N)cn1CCOC` the value was 99 to 101 °C.
`O=C(O)c1ccccc1Sc1ccc(Br)cn1` gave a melting point of 183 to 185 °C.
For `c1ccc(CCc2nnn[nH]2)cc1` the value was 96 to 98 °C.
As to `CCCS(=O)(=O)NC(C(=O)OCC)C(=O)OCC`, the melting point is 40 to 42 °C.
For `OC1CCN(c2nncc3ccccc23)CC1` the value was 135 to 137 °C; for `CC(C)C(C(=O)O)N1CCN(C)CC1` (centres undefined), 195 to 197 °C.
The same measure for `O=S(=O)(NC1CCNCC1)c1ccccc1`: 157 to 159 °C.
For `NC(CC(=O)NC1CCCC1)=NO` the value was 119 to 121 °C; for `Nc1ccc2c(c1)C(=O)CCC2`, 126 to 128 °C.
For `CNC(=O)NC(C)(C)C(=O)O`, the melting point was in the range of 139 to 141 °C.
For `COc1ccc2c(c1)CCCC(=O)N2` the value was 142 to 144 °C; for `CC(=O)c1c(C)oc(N)c1C#N`, 241 to 243 °C; for `Cc1ccc(-c2csc3ncnc(Cl)c23)cc1C`, 179 to 181 °C.
`O=C(O)c1cccc(NC(=O)C2CC2)c1` yielded a melting point of 264 to 266 °C.
For `O=C(O)COc1ccccc1OCc1ccc(F)cc1` the value was 108 to 110 °C.
For `O=c1[nH]c(S)nc2scc(-c3ccc(F)cc3)c12` the value was 200 to 202 °C; for `Cc1ccc(C)c(S(=O)(=O)N2CCN(C(=O)CCC(=O)O)CC2)c1`, 143 to 145 °C.
The same measure for `O=C1NCCCc2sccc21`: 89 to 91 °C; for `O=S(=O)(Cl)c1cc(Cl)c(Br)s1`: 61 to 63 °C; for `CCOC(=O)c1cc2c(nc1N)CCN(C)C2`: 146 to 148 °C.
The molecule `O=Cc1cccc2cn[nH]c12` came in with a melting point of 121 to 123 °C.
The same measure for `Cc1cc(C(=O)CCl)c(C)n1-c1ccc(C(C)(C)C)cc1`: 102 to 104 °C; for `Nc1nc(CN2CCN(Cc3ccccc3)CC2)cs1`: 110 to 112 °C.
The same measure for `O=S1(=O)Cc2ccc(Cl)cc2N1`: 149 to 151 °C; for `O=C1NC(=O)C2(CCC2)N1`: 222 to 224 °C.
The same measure for `O=S(=O)(F)Cc1ccc(Cl)nc1`: 81 to 83 °C; for `COc1ccc(CNC(=O)C(C)Cl)cc1OC` (centres undefined): 97 to 99 °C; for `O=C(O)CCCNc1ncccn1`: 127 to 129 °C.
Molecule `CC(=O)c1nc2ccc(C)cc2[nH]1` gave a melting point of 156 to 158 °C.
For `N#Cc1ccc(Cc2cnc(N)s2)c(C(F)(F)F)c1` the value was 196 to 198 °C.
The same measure for `O=C(CCn1ccnc1)Nc1cccc(C(=O)O)c1`: 216 to 218 °C.
The molecule `Cc1[nH]ncc1S(=O)(=O)Cl` yielded a melting point of 95 to 97 °C.
For `Fc1nc(C(F)(F)F)ccc1I` the value was 48 to 50 °C; for `COC(=O)c1cc2ccccc2n1C`, 69 to 71 °C.
`CC(NS(=O)(=O)Cc1ccc(CN)cc1)C(N)=O` (centres undefined) had a melting point of 140 to 142 °C.
Consider `CS(=O)(=O)c1ccc(C#N)cc1F`, for which the melting point was in the range of 146 to 148 °C.
In turn, `COC(=O)c1ccc(S(=O)(=O)Cl)cn1` displayed a melting point of 119 to 121 °C.
`CC1(C)CCCCC1=CC(=O)O` displayed a melting point of 89 to 91 °C.
The same measure for `Sc1nnc(CCc2ccccc2)o1`: 92 to 94 °C.
On to `O=Cc1cn(Cc2ccccc2)nc1-c1ccccc1`, for which the melting point lay within 85 to 87 °C.
The same measure for `Cc1nn(C2CCOC2)cc1C(=O)O` (centres undefined): 163 to 165 °C.
The same measure for `COC(=O)Nc1ccc(CO)cc1`: 79 to 81 °C; for `OCc1nc2cc(Br)ccc2[nH]1`: 179 to 181 °C; for `O=C(O)C1CSC(c2ccsc2)N1` (centres undefined): 144 to 146 °C.
The molecule `CCOC(=O)C(=O)CC(=O)c1ccccc1OCC` displayed a melting point of 91 to 93 °C.
